Results: PubChem BioAssay AID248 (DTP/NCI, 2004)
Inconclusive results and toxic doses are left out. Cut-off read from the data, not from the text of the source: active = T/C of 150% or more; inactive = T/C below 125%.

Test system: L1210 leukemia ip in BDF1 mice, survival T/C
Assay: NCI In Vivo Anticancer Drug Screen. Data for tumor model L1210 Leukemia (intraperitoneal) in B6D2F1 (BDF1) mice
Conditions: endpoint: mean survival time, higher = longer survival
In short: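 Mice bearing the transplanted tumor received compound or vehicle. Survival of the treated group was divided by that of the vehicle-treated control group to give the ratio.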

[1] = dose: 100.0 mg/kg/injection, schedule: Q04DX003 (ip), vehicle: saline
[2] = dose: 200.0 mg/kg/injection, schedule: Q04DX003 (ip), vehicle: saline
[3] = dose: 400.0 mg/kg/injection, schedule: Q04DX003 (ip), vehicle: saline
[4] = dose: 100.0 mg/kg/injection, schedule: Q01DX009 (ip), vehicle: Klucel (hydroxypropylcellulose) (HPC)
[5] = dose: 200.0 mg/kg/injection, schedule: Q01DX009 (ip), vehicle: Klucel (hydroxypropylcellulose) (HPC)
[6] = dose: 400.0 mg/kg/injection, schedule: Q01DX009 (ip), vehicle: Klucel (hydroxypropylcellulose) (HPC)
[7] = dose: 100.0 mg/kg/injection, schedule: Q04DX003 (ip), vehicle: Klucel (hydroxypropylcellulose) (HPC)
[8] = dose: 200.0 mg/kg/injection, schedule: Q04DX003 (ip), vehicle: Klucel (hydroxypropylcellulose) (HPC)
[9] = dose: 400.0 mg/kg/injection, schedule: Q04DX003 (ip), vehicle: Klucel (hydroxypropylcellulose) (HPC)
[10] = dose: 100.0 mg/kg/injection, schedule: Q04DX002 (ip), vehicle: saline with Tween-80
[11] = dose: 200.0 mg/kg/injection, schedule: Q04DX002 (ip), vehicle: saline with Tween-80
[12] = dose: 400.0 mg/kg/injection, schedule: Q04DX002 (ip), vehicle: saline with Tween-80
[13] = dose: 100.0 mg/kg/injection, schedule: Q04DX003 (ip), vehicle: saline with Tween-80
[14] = dose: 200.0 mg/kg/injection, schedule: Q04DX003 (ip), vehicle: saline with Tween-80
[15] = dose: 400.0 mg/kg/injection, schedule: Q04DX003 (ip), vehicle: saline with Tween-80
[16] = dose: 50.0 mg/kg/injection, schedule: Q01DX009 (ip), vehicle: Klucel (hydroxypropylcellulose) (HPC)
[17] = dose: 100.0 mg/kg/injection, schedule: Q01DX009 (ip), vehicle: saline with Tween-80
[18] = dose: 200.0 mg/kg/injection, schedule: Q01DX009 (ip), vehicle: saline with Tween-80
[19] = dose: 400.0 mg/kg/injection, schedule: Q01DX009 (ip), vehicle: saline with Tween-80

Measured: T/C

CC1(CS(=O)(=O)c2ccccc2)C(=O)C2CCC1C2 (centres undefined)
inactive: dose: 100.0 mg/kg/injection, schedule: Q01DX001 (ip), vehicle: saline 90 % of control | [1] 94 % of control | dose: 200.0 mg/kg/injection, schedule: Q01DX001 (ip), vehicle: saline 98 % of control | [2] 89 % of control | dose: 400.0 mg/kg/injection, schedule: Q01DX001 (ip), vehicle: saline 88 % of control | [3] 98 % of control

CCCCCCCCCCCCCCCCCCNC(=O)Nc1cccc(NC(C)=O)c1
inactive: [4] 91 % of control | [5] 88 % of control | [6] 98 % of control

O=C(Nc1scc2c1sc1ccccc12)c1ccccc1
inactive: dose: 100.0 mg/kg/injection, schedule: Q01DX001 (ip), vehicle: Klucel (hydroxypropylcellulose) (HPC) 93 % of control | dose: 200.0 mg/kg/injection, schedule: Q01DX001 (ip), vehicle: Klucel (hydroxypropylcellulose) (HPC) 93 % of control | dose: 400.0 mg/kg/injection, schedule: Q01DX001 (ip), vehicle: Klucel (hydroxypropylcellulose) (HPC) 107 % of control

Clc1ccc2nsnc2c1Cl
inactive: [7] 95 % of control | [8] 98 % of control | [9] 98 % of control

O=C1CCCC2CCCC12 (centres undefined)
inactive: dose: 100.0 mg/kg/injection, schedule: Q01DX001 (ip), vehicle: carboxymethylcellulose (CMC) 93 % of control | dose: 200.0 mg/kg/injection, schedule: Q01DX001 (ip), vehicle: carboxymethylcellulose (CMC) 95 % of control | dose: 400.0 mg/kg/injection, schedule: Q01DX001 (ip), vehicle: carboxymethylcellulose (CMC) 93 % of control

CN(C)c1ccc(C=Nc2ccccc2)cc1
inactive: dose: 100.0 mg/kg/injection, schedule: Q01DX001 (ip), vehicle: other 98 % of control | dose: 200.0 mg/kg/injection, schedule: Q01DX001 (ip), vehicle: other 102 % of control | dose: 400.0 mg/kg/injection, schedule: Q01DX001 (ip), vehicle: other 108 % of control

COc1ccc(C(C)(O)c2cnc(C)n2Cc2ccccc2)cc1 (centres undefined)
inactive: [7] 99 % of control | [8] 97 % of control | [9] 95 % of control

Cn1ccc2c([N+](=O)[O-])cccc2c1=O
inactive: dose: 25.0 mg/kg/injection, schedule: Q04DX003 (ip), vehicle: Klucel (hydroxypropylcellulose) (HPC) 92 % of control | dose: 50.0 mg/kg/injection, schedule: Q04DX003 (ip), vehicle: Klucel (hydroxypropylcellulose) (HPC) 98 % of control

COC(=O)C(COC1OC(COC(C)=O)C(OC(C)=O)C(OC(C)=O)C1NC(C)=O)NC(=O)OCc1ccccc1 (centres undefined)
inactive: dose: 50.0 mg/kg/injection, schedule: Q04DX002 (ip), vehicle: Klucel (hydroxypropylcellulose) (HPC) 91 % of control | dose: 100.0 mg/kg/injection, schedule: Q04DX002 (ip), vehicle: Klucel (hydroxypropylcellulose) (HPC) 98 % of control | dose: 200.0 mg/kg/injection, schedule: Q04DX002 (ip), vehicle: Klucel (hydroxypropylcellulose) (HPC) 88 % of control

Cc1cc(C)c(NC(=O)CC#N)c(C)c1
inactive: [10] 90 % of control | [11] 90 % of control | [12] 90 % of control

O=c1c2ccccc2nc(-c2ccccc2)n1/N=C/c1ccco1
inactive: [4] 93 % of control | [5] 94 % of control | [6] 96 % of control

O=C(NCCF)NC1CS(=O)(=O)CS(=O)(=O)C1
inactive: dose: 9.5 mg/kg/injection, schedule: Q01DX001 (ip), vehicle: other 100 % of control | dose: 19.0 mg/kg/injection, schedule: Q01DX001 (ip), vehicle: other 105 % of control | dose: 38.0 mg/kg/injection, schedule: Q01DX001 (ip), vehicle: other 96 % of control

CC(C)CCCC(C)C1CCC2C3CC=C4CC(O[N+](=O)[O-])CCC4(C)C3CCC12C (centres undefined)
inactive: [10] 102 % of control | [11] 112 % of control | [12] 102 % of control

CC(=O)c1ccccc1N1CCCCC1
inactive: dose: 100.0 mg/kg/injection, schedule: Q04DX002 (ip), vehicle: saline 100 % of control | dose: 200.0 mg/kg/injection, schedule: Q04DX002 (ip), vehicle: saline 89 % of control

O=C1NC(=O)C(c2ccc3c(c2)OCO3)N1 (centres undefined)
inactive: [13] 104 % of control | [14] 102 % of control | [15] 101 % of control

CCN(CC)CCNC1CCCCC1
inactive: [13] 94 % of control

CC(C)(C)OC(=O)CCC(NC(=O)OCc1ccccc1)C(=O)NN (centres undefined)
inactive: [16] 100 % of control | dose: 75.0 mg/kg/injection, schedule: Q01DX001 (ip), vehicle: Klucel (hydroxypropylcellulose) (HPC) 88 % of control | [4] 110 % of control | [7] 99 % of control | dose: 150.0 mg/kg/injection, schedule: Q01DX001 (ip), vehicle: Klucel (hydroxypropylcellulose) (HPC) 108 % of control | [5] 100 % of control | [8] 106 % of control | dose: 300.0 mg/kg/injection, schedule: Q01DX001 (ip), vehicle: Klucel (hydroxypropylcellulose) (HPC) 92 % of control | [9] 105 % of control

COc1cc(CCNC(=O)Cc2ccc(OCc3ccccc3)cc2)ccc1OCc1ccccc1
inactive: [16] 91 % of control | [4] 89 % of control | dose: 100.0 mg/kg/injection, schedule: Q04DX003 (ip), vehicle: other 111 % of control | [5] 89 % of control | dose: 200.0 mg/kg/injection, schedule: Q04DX003 (ip), vehicle: other 105 % of control | dose: 400.0 mg/kg/injection, schedule: Q04DX003 (ip), vehicle: other 94 % of control

COC(=O)CNC(=O)C(CSCc1ccccc1)NC(=O)OCc1ccccc1 (centres undefined)
inactive: [7] 94 % of control | [8] 89 % of control | [9] 99 % of control

CC1CCN(C(=O)Nc2cccc(C(F)(F)F)c2)CC1
inactive: [17] 94 % of control | [18] 97 % of control | [19] 91 % of control

Cc1cccc(C)c1N=C=S
inactive: dose: 25.0 mg/kg/injection, schedule: Q04DX003 (ip), vehicle: saline with Tween-80 100 % of control | dose: 50.0 mg/kg/injection, schedule: Q04DX003 (ip), vehicle: saline with Tween-80 96 % of control | [13] 98 % of control

O=C(NC(Cc1ccccc1)C(=O)O)OCc1ccccc1 (centres undefined)
inactive: [17] 98 % of control | [13] 105 % of control | [18] 98 % of control | [14] 94 % of control | [19] 88 % of control | [15] 96 % of control

COc1ccc(Cl)cc1Cl
inactive: dose: 75.0 mg/kg/injection, schedule: Q01DX009 (ip), vehicle: saline 90 % of control | dose: 75.0 mg/kg/injection, schedule: Q04DX003 (ip), vehicle: saline 100 % of control | dose: 150.0 mg/kg/injection, schedule: Q01DX009 (ip), vehicle: saline 86 % of control | dose: 150.0 mg/kg/injection, schedule: Q04DX003 (ip), vehicle: saline 95 % of control | dose: 300.0 mg/kg/injection, schedule: Q01DX009 (ip), vehicle: saline 92 % of control | dose: 300.0 mg/kg/injection, schedule: Q04DX003 (ip), vehicle: saline 90 % of control

O=C(c1ccccc1)C1CCC1
inactive: [4] 92 % of control | [1] 101 % of control | [5] 98 % of control | [2] 97 % of control | [6] 92 % of control | [3] 97 % of control
